Measurements from ChEMBL document CHEMBL4627344, “Synthesis, biological evaluation and virtual screening of some acridone derivatives as potential anticancer agents” (2020).

Tests used:
Format in all cases: functional
LOX IMVI = test: Antiproliferative activity against human LOXIMVI cells assessed as inhibition of cell growth measured after 48 hrs by SRB assay
HT-29 = test: Antiproliferative activity against human HT-29 cells assessed as inhibition of cell growth measured after 48 hrs by SRB assay; details: HT-29, 48 h
IGROV-1 [1] = test: Antiproliferative activity against human IGROV1 cells assessed as inhibition of cell growth at 10 uM measured after 48 hrs by SRB assay relative to control; details: IGROV-1, 48 h, read-out: GI
UO-31 = test: Antiproliferative activity against human UO31 cells assessed as inhibition of cell growth measured after 48 hrs by SRB assay; details: UO-31, 48 h
EKVX = test: Antiproliferative activity against human EKVX cells assessed as inhibition of cell growth measured after 48 hrs by SRB assay
SF-295 = test: Antiproliferative activity against human SF295 cells assessed as inhibition of cell growth measured after 48 hrs by SRB assay; details: SF-295, 48 h
M14 = test: Antiproliferative activity against human M14 cells assessed as inhibition of cell growth measured after 48 hrs by SRB assay; details: M14, 48 h
NCI-H322M = test: Antiproliferative activity against human NCI-H322M cells assessed as inhibition of cell growth measured after 48 hrs by SRB assay
SN12C = test: Antiproliferative activity against human SN12C cells assessed as inhibition of cell growth at 10 uM measured after 48 hrs by SRB assay relative to control; details: read-out: GI
SF-539 = test: Antiproliferative activity against human SF539 cells assessed as inhibition of cell growth at 10 uM measured after 48 hrs by SRB assay relative to control; details: SF-539, 48 h, read-out: GI
786-0 = test: Antiproliferative activity against human 786-0 cells assessed as inhibition of cell growth measured after 48 hrs by SRB assay; details: 786-0, 48 h
HCT-15 = test: Antiproliferative activity against human HCT15 cells assessed as inhibition of cell growth at 10 uM measured after 48 hrs by SRB assay relative to control; details: HCT-15, 48 h, read-out: GI
HCT-116 = test: Antiproliferative activity against human HCT116 cells assessed as inhibition of cell growth at 10 uM measured after 48 hrs by SRB assay relative to control; details: HCT-116, 48 h, read-out: GI
U-251 [2] = test: Antiproliferative activity against human U251 cells assessed as inhibition of cell growth at 10 uM measured after 48 hrs by SRB assay relative to control; details: U-251, 48 h, read-out: GI
COLO 205 [3] = test: Antiproliferative activity against human COLO205 cells assessed as inhibition of cell growth at 10 uM measured after 48 hrs by SRB assay relative to control; details: COLO 205, 48 h, read-out: GI
COLO 205 [4] = test: Antiproliferative activity against human COLO205 cells assessed as inhibition of cell growth measured after 48 hrs by SRB assay; details: COLO 205, 48 h
SNB-75 = test: Antiproliferative activity against human SNB75 cells assessed as inhibition of cell growth measured after 48 hrs by SRB assay; details: SNB-75, 48 h
HL-60(TB) = test: Antiproliferative activity against human HL-60(TB) cells assessed as inhibition of cell growth at 10 uM measured after 48 hrs by SRB assay relative to control; details: HL-60, 48 h, read-out: GI
BT-549 = test: Antiproliferative activity against human BT549 cells assessed as inhibition of cell growth at 10 uM measured after 48 hrs by SRB assay relative to control; details: BT-549, 48 h, read-out: GI
NCI-H522 [5] = test: Antiproliferative activity against human NCI-H522 cells assessed as inhibition of cell growth measured after 48 hrs by SRB assay; details: NCI-H522, 48 h
SW-620 = test: Antiproliferative activity against human SW620 cells assessed as inhibition of cell growth measured after 48 hrs by SRB assay; details: SW-620, 48 h
NCI-H522 [6] = test: Antiproliferative activity against human NCI-H522 cells assessed as inhibition of cell growth at 10 uM measured after 48 hrs by SRB assay relative to control; details: NCI-H522, 48 h, read-out: GI
DU-145 = test: Antiproliferative activity against human DU145 cells assessed as inhibition of cell growth at 10 uM measured after 48 hrs by SRB assay relative to control; details: DU-145, 48 h, read-out: GI
IGROV-1 [7] = test: Antiproliferative activity against human IGROV1 cells assessed as inhibition of cell growth measured after 48 hrs by SRB assay; details: IGROV-1, 48 h
ACHN = test: Antiproliferative activity against human ACHN cells assessed as inhibition of cell growth measured after 48 hrs by SRB assay
OVCAR-3 = test: Antiproliferative activity against human OVCAR3 cells assessed as inhibition of cell growth measured after 48 hrs by SRB assay; details: OVCAR-3, 48 h
OVCAR-5 = test: Antiproliferative activity against human OVCAR5 cells assessed as inhibition of cell growth at 10 uM measured after 48 hrs by SRB assay relative to control; details: OVCAR-5, 48 h, read-out: GI
SNB-19 = test: Antiproliferative activity against human SNB19 cells assessed as inhibition of cell growth at 10 uM measured after 48 hrs by SRB assay relative to control; details: SNB-19, 48 h, read-out: GI
NCI-H460 = test: Antiproliferative activity against human NCI-H460 cells assessed as inhibition of cell growth measured after 48 hrs by SRB assay; details: NCI-H460, 48 h
OVCAR-8 = test: Antiproliferative activity against human OVCAR8 cells assessed as inhibition of cell growth measured after 48 hrs by SRB assay; details: OVCAR-8, 48 h
HCC 2998 = test: Antiproliferative activity against human HCC2998 cells assessed as inhibition of cell growth at 10 uM measured after 48 hrs by SRB assay relative to control; details: HCC 2998, 48 h, read-out: GI
NCI/ADR-RES = test: Antiproliferative activity against human NCI/ADR-RES cells assessed as inhibition of cell growth measured after 48 hrs by SRB assay
A498 = test: Antiproliferative activity against human A498 cells assessed as inhibition of cell growth at 10 uM measured after 48 hrs by SRB assay relative to control; details: A498, 48 h, read-out: GI
SK-MEL-28 = test: Antiproliferative activity against human SK-MEL-28 cells assessed as inhibition of cell growth measured after 48 hrs by SRB assay; details: SK-MEL-28, 48 h
NCI-H226 = test: Antiproliferative activity against human NCI-H226 cells assessed as inhibition of cell growth measured after 48 hrs by SRB assay; details: NCI-H226, 48 h
U-251 [8] = test: Antiproliferative activity against human U251 cells assessed as inhibition of cell growth measured after 48 hrs by SRB assay; details: U-251, 48 h

| Structure (SMILES) | GI50 (LOX IMVI) | GI50 (HT-29) | inhibition of growth at 10 µM (IGROV-1 [1]) | GI50 (UO-31) | GI50 (EKVX) | GI50 (SF-295) | GI50 (M14) | GI50 (NCI-H322M) | inhibition of growth at 10 µM (SN12C) | inhibition of growth at 10 µM (SF-539) | GI50 (786-0) | inhibition of growth at 10 µM (HCT-15) | inhibition of growth at 10 µM (HCT-116) | inhibition of growth at 10 µM (U-251 [2]) | inhibition of growth at 10 µM (COLO 205 [3]) | GI50 (COLO 205 [4]) | GI50 (SNB-75) | inhibition of growth at 10 µM (HL-60(TB)) | inhibition of growth at 10 µM (BT-549) | GI50 (NCI-H522 [5]) | further results |
| --- | --- | --- | --- | --- | --- | --- | --- | --- | --- | --- | --- | --- | --- | --- | --- | --- | --- | --- | --- | --- | --- |
| COc1ccc2nc3c(cc2c1)C(=O)CC(C(F)(F)F)C3 (centres undefined) | 3080 nM | 387 nM | 63.4% | 2000 nM | 4190 nM | 853 nM | 238 nM | 1320 nM | 57.9% | 77.4% | 6570 nM | 62.2% | 88.1% | 15.3% | 90.9% | 1160 nM | 2160 nM | 115% | 39.1% | 582 nM | GI50 (SW-620): 3450 nM; inhibition of growth at 10 µM (NCI-H522 [6]): 68.1%; inhibition of growth at 10 µM (DU-145): 95.7%; GI50 (IGROV-1 [7]): 769 nM; GI50 (ACHN): 768 nM; GI50 (OVCAR-3): 1830 nM; inhibition of growth at 10 µM (OVCAR-5): 42.3%; inhibition of growth at 10 µM (SNB-19): 49.7%; GI50 (NCI-H460): 2610 nM; GI50 (OVCAR-8): 2040 nM; inhibition of growth at 10 µM (HCC 2998): 16%; GI50 (NCI/ADR-RES): 336 nM; inhibition of growth at 10 µM (A498): 108% |
| O=C1CC(c2ccccc2)Cc2nc3c(Br)cc(Br)cc3cc21 (centres undefined) | 758 nM | 233 nM | 84.8% | 79.5 nM | 391 nM | 196 nM | 284 nM | 74.8 nM | 60.5% | 93.1% | 813 nM | 89.7% | 93.8% | 91.4% | 148% | 152 nM | 199 nM | 95.4% | 94.7% | 137 nM | GI50 (SK-MEL-28): 478 nM; GI50 (NCI-H226): 241 nM; GI50 (SW-620): 83.9 nM; inhibition of growth at 10 µM (NCI-H522 [6]): 91.5%; GI50 (U-251 [8]): 421 nM; inhibition of growth at 10 µM (DU-145): 99%; GI50 (IGROV-1 [7]): 125 nM; GI50 (ACHN): 595 nM; GI50 (OVCAR-3): 30.2 nM; inhibition of growth at 10 µM (OVCAR-5): 52.9%; inhibition of growth at 10 µM (SNB-19): 65.2%; GI50 (NCI-H460): 42.3 nM; GI50 (OVCAR-8): 507 nM; inhibition of growth at 10 µM (HCC 2998): 93.5%; GI50 (NCI/ADR-RES): 236 nM |
| O=C1CC(c2ccccc2)Cc2nc3ccc(Br)cc3cc21 (centres undefined) | 707 nM | 205 nM | 78% | 640 nM | 756 nM | 206 nM | 50.5 nM | 623 nM | 67.8% | 98.4% | 784 nM | 84% | 94.4% | 81.9% | 136% | 261 nM | 210 nM | 128% | 93.5% | 236 nM | GI50 (SK-MEL-28): 954 nM; GI50 (NCI-H226): 2250 nM; GI50 (SW-620): 360 nM; inhibition of growth at 10 µM (NCI-H522 [6]): 104%; GI50 (U-251 [8]): 553 nM; inhibition of growth at 10 µM (DU-145): 103%; GI50 (IGROV-1 [7]): 423 nM; GI50 (ACHN): 583 nM; GI50 (OVCAR-3): 289 nM; inhibition of growth at 10 µM (OVCAR-5): 72.8%; inhibition of growth at 10 µM (SNB-19): 72.6%; GI50 (NCI-H460): 344 nM; GI50 (OVCAR-8): 461 nM; inhibition of growth at 10 µM (HCC 2998): 73%; GI50 (NCI/ADR-RES): 66.9 nM; inhibition of growth at 10 µM (A498): 112% |
